In patent publication US11117900B2 (Vertex Pharmaceuticals Incorporated, priority 2012, dated 2021):

tested on: HCT116 colorectal cancer cells; assay: Cisplatin sensitization assay (96 h MTS cell viability); format: cell-based; settings: Cisplatin sensitization value;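 further: compound concentration needed to lower the IC50 of Cisplatin alone by a set fold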
How it was run: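 HCT116 cells were dosed simultaneously with compound and cisplatin as a full matrix of 2-fold serial dilutions from 10 μM top final concentration. Incubation was 96 h at 37° C., 5% CO2, followed by 1 h with MTS reagent for the viability read-out. Sensitization values were binned into +++, ++ and + categories.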

Row | SMILES | Cisplatin Sensitization Assay
1 | CN1CCN(C(=O)C2CCN(c3c(F)cncc3NC(=O)c3c(N)nn4cc(F)cnc34)CC2)CC1(C)C [I-G-15, 2-amino-6-fluoro-N-(5-fluoro-4-(4-(3,3,4-trimethylpiperazine-1-carbonyl)piperidin-1-yl)pyridin-3-yl)pyrazolo[1,5-a]pyrimidine-3-carboxamide] | +++ (Compounds with a Cisplatin sensitization value of <0.02 μM are marked with “+++.”)
2 | N#CCc1cnc2c(C(=O)Nc3cnccc3N3CCCCC3)c(N)nn2c1 [I-N-84, 2-amino-6-(cyanomethyl)-N-(4-(piperidin-1-yl)pyridin-3-yl)pyrazolo[1,5-a]pyrimidine-3-carboxamide] | +++ (Compounds with a Cisplatin sensitization value of <0.02 μM are marked with “+++.”)
3 | CN(C)CCOc1ccncc1NC(=O)c1c(N)nn2cc(CC#N)cnc12 [I-O-24, 2-amino-6-(cyanomethyl)-N-(4-(2-(dimethylamino)ethoxy)pyridin-3-yl)pyrazolo[1,5-a]pyrimidine-3-carboxamide] | ++ (Compounds with a Cisplatin sensitization value >0.02 μM but <0.2 μM are marked with “++.”)
4 | CN1CCN(c2c(Cl)cncc2NC(=O)c2c(N)nn3cc(F)cnc23)CC1 [I-N-85, 2-amino-N-(5-chloro-4-(4-methylpiperazin-1-yl)pyridin-3-yl)-6-fluoropyrazolo[1,5-a]pyrimidine-3-carboxamide] | ++ (Compounds with a Cisplatin sensitization value >0.02 μM but <0.2 μM are marked with “++.”)
5 | COC1CN(C2CCN(c3ccncc3NC(=O)c3c(N)nn4cc(Cl)cnc34)CC2)C1 [I-N-107, 2-amino-6-chloro-N-(4-(4-(3-methoxyazetidin-1-yl)piperidin-1-yl)pyridin-3-yl)pyrazolo[1,5-a]pyrimidine-3-carboxamide] | +++ (Compounds with a Cisplatin sensitization value of <0.02 μM are marked with “+++.”)
6 | Cc1nccn1-c1ccncc1NC(=O)c1c(N)nn2cc(F)cnc12 [I-N-28, 2-amino-6-fluoro-N-(4-(2-methyl-1H-imidazol-1-yl)pyridin-3-yl)pyrazolo[1,5-a]pyrimidine-3-carboxamide] | +++ (Compounds with a Cisplatin sensitization value of <0.02 μM are marked with “+++.”)
7 | CCOc1ccncc1NC(=O)c1c(N)nn2cc(Cl)cnc12 [I-O-56, 2-amino-6-chloro-N-(4-ethoxypyridin-3-yl)pyrazolo[1,5-a]pyrimidine-3-carboxamide] | +++ (Compounds with a Cisplatin sensitization value of <0.02 μM are marked with “+++.”)
8 | Nc1nn2cc(F)cnc2c1C(=O)Nc1cncc(F)c1N1CCC(C(=O)N2CCN(C3CC3)CC2)CC1 [I-G-13, 2-amino-N-(4-(4-(4-cyclopropylpiperazine-1-carbonyl)piperidin-1-yl)-5-fluoropyridin-3-yl)-6-fluoropyrazolo[1,5-a]pyrimidine-3-carboxamide] | +++ (Compounds with a Cisplatin sensitization value of <0.02 μM are marked with “+++.”)
9 | Nc1nn2cc(F)cnc2c1C(=O)Nc1cnccc1N1CCC(c2ncon2)CC1 [I-N-241, N-(4-(4-(1,2,4-oxadiazol-3-yl)piperidin-1-yl)pyridin-3-yl)-2-amino-6-fluoropyrazolo[1,5-a]pyrimidine-3-carboxamide] | +++ (Compounds with a Cisplatin sensitization value of <0.02 μM are marked with “+++.”)
10 | Nc1nn2cc(F)cnc2c1C(=O)Nc1cncc(F)c1N1CCN(C(=O)C2COC2)CC1 [I-N-278, 2-amino-6-fluoro-N-(5-fluoro-4-(4-(oxetane-3-carbonyl)piperazin-1-yl)pyridin-3-yl)pyrazolo[1,5-a]pyrimidine-3-carboxamide] | +++ (Compounds with a Cisplatin sensitization value of <0.02 μM are marked with “+++.”)
11 | Nc1nn2cc(F)cnc2c1C(=O)Nc1cncc(F)c1N1CCN(C2CCOC2)CC1 (centres unmarked) [I-N-122, 2-amino-6-fluoro-N-(5-fluoro-4-(4-(tetrahydrofuran-3-yl)piperazin-1-yl)pyridin-3-yl)pyrazolo[1,5-a]pyrimidine-3-carboxamide] | ++ (Compounds with a Cisplatin sensitization value >0.02 μM but <0.2 μM are marked with “++.”)
12 | CCN1CCN(c2ccncc2NC(=O)c2c(N)nn3cc(F)cnc23)CC1 [I-N-17, 2-amino-N-(4-(4-ethylpiperazin-1-yl)pyridin-3-yl)-6-fluoropyrazolo[1,5-a]pyrimidine-3-carboxamide] | +++ (Compounds with a Cisplatin sensitization value of <0.02 μM are marked with “+++.”)
13 | Nc1nn2cc(F)cnc2c1C(=O)Nc1cncc(F)c1N1CCC(N2CCCC2=O)CC1 [I-N-147, 2-amino-6-fluoro-N-(5-fluoro-4-(4-(2-oxopyrrolidin-1-yl)piperidin-1-yl)pyridin-3-yl)pyrazolo[1,5-a]pyrimidine-3-carboxamide] | +++ (Compounds with a Cisplatin sensitization value of <0.02 μM are marked with “+++.”)
14 | Nc1nn2cc(F)cnc2c1C(=O)Nc1cncc(F)c1N1CCC(C(=O)N2CC(O)C2)CC1 [I-G-41, 2-amino-6-fluoro-N-(5-fluoro-4-(4-(3-hydroxyazetidine-1-carbonyl)piperidin-1-yl)pyridin-3-yl)pyrazolo[1,5-a]pyrimidine-3-carboxamide] | +++ (Compounds with a Cisplatin sensitization value of <0.02 μM are marked with “+++.”)
15 | Cc1ncn(C)c1-c1ccncc1NC(=O)c1c(N)nn2cc(F)cnc12 [I-C-78, 2-amino-N-(4-(1,4-dimethyl-1H-imidazol-5-yl)pyridin-3-yl)-6-fluoropyrazolo[1,5-a]pyrimidine-3-carboxamide] | ++ (Compounds with a Cisplatin sensitization value >0.02 μM but <0.2 μM are marked with “++.”)
16 | CN1CCN(C(=O)N2CCC(c3ccncc3NC(=O)c3c(N)nn4cc(F)cnc34)CC2)CC1 [I-C-17, 2-amino-6-fluoro-N-(4-(1-(4-methylpiperazine-1-carbonyl)piperidin-4-yl)pyridin-3-yl)pyrazolo[1,5-a]pyrimidine-3-carboxamide] | ++ (Compounds with a Cisplatin sensitization value >0.02 μM but <0.2 μM are marked with “++.”)
17 | Nc1nn2cc(F)cnc2c1C(=O)Nc1cncc(F)c1N1CCN(S(=O)(=O)C2COC2)CC1 [I-N-201] | +++ (Compounds with a Cisplatin sensitization value of <0.02 μM are marked with “+++.”)
18 | Nc1nn2cc(Cl)cnc2c1C(=O)Nc1cnccc1N1CCC(N)CC1 [I-N-86, 2-amino-N-(4-(4-aminopiperidin-1-yl)pyridin-3-yl)-6-chloropyrazolo[1,5-a]pyrimidine-3-carboxamide] | +++ (Compounds with a Cisplatin sensitization value of <0.02 μM are marked with “+++.”)
19 | Nc1nn2cc(F)cnc2c1C(=O)Nc1cncc(F)c1N1CCC(C(=O)N2CC(N3CCC3)C2)CC1 [I-G-49, N-(4-(4-([1,3′-biazetidine]-1′-carbonyl)piperidin-1-yl)-5-fluoropyridin-3-yl)-2-amino-6-fluoropyrazolo[1,5-a]pyrimidine-3-carboxamide] | +++ (Compounds with a Cisplatin sensitization value of <0.02 μM are marked with “+++.”)
20 | N#CCc1cnc2c(C(=O)Nc3cnccc3OC3CCCOC3)c(N)nn2c1 (centres unmarked) [I-O-41, 2-amino-6-(cyanomethyl)-N-(4-((tetrahydro-2H-pyran-3-yl)oxy)pyridin-3-yl)pyrazolo[1,5-a]pyrimidine-3-carboxamide] | +++ (Compounds with a Cisplatin sensitization value of <0.02 μM are marked with “+++.”)
21 | CC1(O)CCN(c2ccncc2NC(=O)c2c(N)nn3cc(Cl)cnc23)CC1 [I-N-66, 2-amino-6-chloro-N-(4-(4-hydroxy-4-methylpiperidin-1-yl)pyridin-3-yl)pyrazolo[1,5-a]pyrimidine-3-carboxamide] | +++ (Compounds with a Cisplatin sensitization value of <0.02 μM are marked with “+++.”)
22 | Nc1nn2cc(F)cnc2c1C(=O)Nc1cnccc1N1CCN2C(=O)OCC2C1 (centres unmarked) [I-N-238, 2-amino-6-fluoro-N-(4-(3-oxotetrahydro-1H-oxazolo[3,4-a]pyrazin-7(3H)-yl)pyridin-3-yl)pyrazolo[1,5-a]pyrimidine-3-carboxamide] | ++ (Compounds with a Cisplatin sensitization value >0.02 μM but <0.2 μM are marked with “++.”)
23 | Nc1nn2cc(F)cnc2c1C(=O)Nc1cnccc1N1CCC(S(=O)(=O)N2CCOCC2)CC1 [I-N-170, 2-amino-6-fluoro-N-(4-(4-(morpholinosulfonyl)piperidin-1-yl)pyridin-3-yl)pyrazolo[1,5-a]pyrimidine-3-carboxamide] | +++ (Compounds with a Cisplatin sensitization value of <0.02 μM are marked with “+++.”)
24 | CN1CCN(c2cc(Cl)ncc2NC(=O)c2c(N)nn3cc(Cl)cnc23)CC1 [I-N-52, 2-amino-6-chloro-N-(6-chloro-4-(4-methylpiperazin-1-yl)pyridin-3-yl)pyrazolo[1,5-a]pyrimidine-3-carboxamide] | ++ (Compounds with a Cisplatin sensitization value >0.02 μM but <0.2 μM are marked with “++.”)
25 | CN(C)CCCNC(=O)C1CCN(c2c(F)cncc2NC(=O)c2c(N)nn3cc(F)cnc23)CC1 [I-G-26, 2-amino-N-(4-(4-((3-(dimethylamino)propyl)carbamoyl)piperidin-1-yl)-5-fluoropyridin-3-yl)-6-fluoropyrazolo[1,5-a]pyrimidine-3-carboxamide] | ++ (Compounds with a Cisplatin sensitization value >0.02 μM but <0.2 μM are marked with “++.”)
26 | Nc1nn2cc(F)cnc2c1C(=O)Nc1cnccc1-c1ccncc1 [I-C-24, N-([4,4′-bipyridin]-3-yl)-2-amino-6-fluoropyrazolo[1,5-a]pyrimidine-3-carboxamide] | +++ (Compounds with a Cisplatin sensitization value of <0.02 μM are marked with “+++.”)
